Assay results reported in patent publication US6107549A, “Genetically engineered plant resistance to thiazopyr and other pyridine herbicides” (Monsanto Company, priority 1999, dated 2000).

How the values were obtained:
tomato seedlings = conditions: in vivo
Description: Esterase activity was also monitored in plants. [^14 C]Thiazopyr or [^14 C]MON 14300 (1-4 μg in acetonitrile) was applied directly to shoots and cotyledons of young seedlings. After 2 days in a growth chamber, tobacco or tomato seedlings were washed with methanol and water, then homogenized (TISSUMIZER™, Tekmar-Dohrmann, Cincinnatti, Ohio) in 5% (v/v) trifluoroacetic acid in acetonitrile (fresh w/v ratio of 2/1). Homogenates were clarified by centrifugation (12,000× g) and supernatants analyzed by HPLC/RAD for the formation of the monoacid metabolite.
MON 14300 was applied to the shoot of 2-day old seedlings. Two days after treatment, seedlings were washed with methanol and tissue extracts analyzed by HPLC. The HPLC chromatograms show signals from both the UV254 nm (upper trace, FIG. 5) and radioactivity (lower trace, FIG. 5) detectors. For the purpose of metabolite identification, plant extracts were co-injected with a mixture of authentic standards visible under UV detection. […] In both transgenic lines, small levels of more polar products, presumably from further degradation of the monoacid as reported by McClanahan et al. (1995), were detected near the solvent front.

tobacco seedlings = assay: Root elongation assay for thiazopyr resistance; format: in vivo
Description: Root elongation assay for thiazopyr resistance. Transgenic tobacco R1 seeds (line #37432) were sterilized with a 0.25% sodium hypochlorite solution and repeatedly washed with water. Just prior to solidification of agar (~45° C.), stock solutions of thiazopyr in DMSO (1% final concentration) was added; the final concentrations of thiazopyr were 0, 0.05, 0.1, and 0.5 μM. The liquid agar was vortexed and dispensed (3 ml) into glass test tubes. Seeds (~12 per test tube) were placed on the surface of solidified agar and stored in a growth chamber at 25° C. with a 12 hr day and night cycle. Root development and length were monitored visually with time. Control experiments employed untransformed tobacco seeds from the Samson variety.

tomato = assay: Growth chamber assay, pre-emergence application; format: in vivo; conditions: PE
Description: Growth chamber and greenhouse assay for resistance. Pyridine herbicide resistance in transgenic tomato expressing RLE3 was examined in soil with pre-emergence (PE) applications of thiazopyr. Tomato seeds (R1 of #8255 and #8256, and control UC82B) were planted in 100 cm^2 pots (12 seeds per pot) in artificial METROMIX™ soil at a depth of 0.5 cm. Pots were watered and oversprayed with a 50% acetone/water solution (2 ml) containing thiazopyr at use rates of 0, 34, 67, 140, and 280 g/ha (grams per hectare). Pots were placed in a growth chamber (12 hr photoperiod; 60% humidity, 25° C. night/29° C. day; 600 μE light) with daily watering by subirrigation.

RLE1 = target: T1, RLE1 (Oryctolagus cuniculus, UniProt P12337); assay: Thiazopyr hydrolysis by RLE1 preparation from Prof. Ozols; format: biochemical, rabbit; conditions: purified RLE1 preparation from Prof. Ozols
T1 construct: tissue Professor J. Ozols; host or cells: rabbit liver
T1 sequence (P12337 19-565): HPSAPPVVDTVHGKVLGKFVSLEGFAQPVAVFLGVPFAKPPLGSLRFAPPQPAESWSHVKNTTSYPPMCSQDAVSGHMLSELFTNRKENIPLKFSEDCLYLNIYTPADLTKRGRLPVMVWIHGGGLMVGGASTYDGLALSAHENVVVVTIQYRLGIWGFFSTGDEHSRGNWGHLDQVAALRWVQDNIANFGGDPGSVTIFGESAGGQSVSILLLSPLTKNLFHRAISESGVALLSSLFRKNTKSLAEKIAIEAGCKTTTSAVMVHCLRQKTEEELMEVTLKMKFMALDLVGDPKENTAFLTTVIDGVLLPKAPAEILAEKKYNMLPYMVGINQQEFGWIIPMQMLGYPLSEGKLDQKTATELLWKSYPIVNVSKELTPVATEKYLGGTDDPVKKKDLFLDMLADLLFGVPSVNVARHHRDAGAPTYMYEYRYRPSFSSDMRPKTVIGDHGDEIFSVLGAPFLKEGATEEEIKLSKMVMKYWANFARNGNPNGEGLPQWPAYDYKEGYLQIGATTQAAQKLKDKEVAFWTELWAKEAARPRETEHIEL
Description: Esterase activity assays. Esterase activity was measured in vitro by conversion of either [^14 C]thiazopyr or [^14 C]MON 14300 to their corresponding monoacid. Pyridine-esterase activity was assayed during protein purification and from tissue extracts of transgenic plants. The homogenizing buffer for plant tissues consisted of 100 mM Tris pH 8.0, 1 mM EDTA, 1 mM DTT, and 10% glycerol in water. Plant tissues (1 g/ml buffer) including leaves, seeds, flowers, seedlings, etc. were homogenized in conical centrifuge tubes using a spinning pestle at 4° C. Following centrifugation (12,000× g), the supernatant (250 μl) was assayed immediately for esterase activity by incubation with [^14 C]thiazopyr or [^14 C]MON 14300 (4 μg) in 0.1 M Tris pH 8.0 buffer (50 μl) at 37° C. The reaction was sampled (100 μL) at various times (0.5 to 100 hr) to generate a kinetic profile of monoacid formation. The reaction was stopped by addition of 1% trifluoroacetic acid in acetonitrile (v/v, 150 μl). Following centrifugation (12,000× g for 3 min), the supernatant was analyzed by HPLC/RAD (radioactivity detection) to resolve the monoacid from the parent herbicide and other metabolites. Control reactions in the absence of the esterase recovered un-reacted thiazopyr or MON 14300 for the duration of experiments. […]

SMILES: COC(=O)c1c(C(F)F)nc(C(F)(F)F)c(C(=O)n2cccn2)c1CC(C)C [MON 14300]
- metabolism in plants (tomato seedlings): little to no metabolism in plants
- monoacid in residue (tomato seedlings; tomato, 48 h): 2.5%
- parent as primary residue (tomato seedlings; tomato, 48 h): 90.8%

SMILES: COC(=O)c1c(C(F)F)nc(C(F)(F)F)c(C2=NCCS2)c1CC(C)C [thiazopyr]
- inhibition at 0.1 µM (tobacco seedlings; Nicotiana tabacum, control (Samson) seedlings, 0.1 μM thiazopyr): ~50%
- root length (tobacco seedlings; transgenic line #37432, 0.1 μM thiazopyr): normal root length
- root inhibition (tobacco seedlings; transgenic line #37432, 0.5 μM thiazopyr): Root inhibition was observed
- difference in vegetative growth between UC82B and #8256 (tomato; 34 g/ha): no detectable difference in vegetative growth
- stunting (tomato; UC82B control, 67 g/ha): about 20%
- growth and survival (tomato; UC82B control, 140 g/ha): never grew beyond the cotyledon stage and eventually all died
- stunting (tomato; transgenic #8256, 67 g/ha): none
- growth and survival (tomato; transgenic #8256, 140 g/ha): numerous healthy seedlings that were stunted but otherwise normal
- resistant seedlings out of 12 to 16 seeds (tomato; transgenic R1, 140 and 280 g/ha): approximately 4
- effect on flower development, fruit set, and seed production (tomato; transgenic plants, 140 and 280 g/ha): no effect
- thiazopyr hydrolytic activity (RLE1): demonstrated thiazopyr hydrolysis
- thiazopyr hydrolytic activity (RLE1; listed as Thiazopyr): could be demonstrated with RLE1
